The text below walks through data of BindingDB's records for doi:10.1016/j.bmcl.2013.04.079 (Bristol-Myers Squibb, 2013).

A short description of one experiment: Antagonist activity at human CCR1 assessed as inhibition of ieukotactin-1-induced chemotaxis.
`CC(C)[C@@H](NC(=O)[C@@H]1CC[C@@H](O)C1)C(=O)N1CC[C@](O)(c2ccc(Cl)cc2)C(C)(C)C1`: the IC50 – broadly, the point on the concentration scale where inhibition reaches its midpoint – was determined as 4.4 nM.

A further experiment in a line: Antagonist activity at human CCR1 assessed as inhibition of MIP1alpha-induced chemotaxis.
As to `CC(C)[C@@H](NC(=O)[C@@H]1CC[C@@H](O)C1)C(=O)N1CC[C@](O)(c2ccc(Cl)cc2)C(C)(C)C1`, the 50% inhibitory concentration (IC50) was 2.1 nM. On the same count and under the same terms, with `CC(C)[C@@H](NC(=O)[C@@H]1CCC[C@@H]1N)C(=O)N1CC[C@](O)(c2ccc(Cl)cc2)C(C)(C)C1` the figure was 5.6 nM; with `CC(C)[C@@H](NC(=O)[C@@H]1CCC[C@@H]1O)C(=O)N1CC[C@](O)(c2ccc(Cl)cc2)C(C)(C)C1`, 3.1 nM; with `CC(C)[C@@H](NC(=O)c1cccc(-c2ccccc2NC(N)=O)c1)C(=O)N1CCC(c2ccc(Cl)cc2)CC1`, 153 nM. Take `CC(C)[C@@H](NC(=O)c1cccc(S(N)(=O)=O)c1)C(=O)N1CCC(c2ccc(Cl)cc2)CC1`: the IC50 was 123 nM. Same read-out and setting: with `CC(C)[C@@H](NC(=O)Cc1ccncc1)C(=O)N1CCC(c2ccc(Cl)cc2)CC1` the figure was 107 nM.

As to `CC(C)[C@@H](NC(=O)c1cccc(-c2ccccc2NC(N)=O)c1)C(=O)N1CC[C@](O)(c2ccc(Cl)cc2)C(C)(C)C1`, the concentration for half-maximal inhibition (IC50) amounted to 48 nM.

For `CC(C)[C@@H](NC(=O)c1ccc(F)c(O)c1)C(=O)N1CCC(c2ccc(Cl)cc2)CC1`, the IC50 came to 48 nM. For the compound `CC(C)[C@@H](NC(=O)c1cccnc1)C(=O)N1CC[C@H](c2ccc(Cl)cc2)C(C)(C)C1`, the IC50 turned out to be 29 nM. Same read-out and setting: as for `CC(C)[C@@H](NC(=O)c1cccnc1)C(=O)N1CC[C@](O)(c2ccc(Cl)cc2)C2(CC2)C1`, the figure is 21 nM. Still for that read-out and setting: with `CC(C)[C@@H](NC(=O)C1CCCC1)C(=O)N1CCN(c2ccc(Cl)cc2)C(C)(C)C1` the figure was 18 nM; with `CC(=O)N[C@@H](C(=O)N1CC[C@](O)(c2ccc(Cl)cc2)C(C)(C)C1)C(C)C`, 15 nM; with `CC(C)[C@@H](NC(=O)c1ccc(F)c(O)c1)C(=O)N1CC[C@](O)(c2ccc(Cl)cc2)C(C)(C)C1`, 13 nM. The same measure, in the same setting: with `CC(C)[C@@H](NC(=O)[C@H]1CC[C@H](O)C1)C(=O)N1CC[C@](O)(c2ccc(Cl)cc2)C(C)(C)C1` the figure was 12 nM; with `CC(C)[C@@H](NC(=O)c1ccccc1)C(=O)N1CC[C@](O)(c2ccc(Cl)cc2)C(C)(C)C1`, 10 nM; with `CC(C)[C@@H](NC(=O)c1cccc(S(N)(=O)=O)c1)C(=O)N1CC[C@](O)(c2ccc(Cl)cc2)C(C)(C)C1`, 9.9 nM.

As for `CC(C)[C@@H](NC(=O)c1cccc(C(=O)O)c1)C(=O)N1CC[C@](O)(c2ccc(Cl)cc2)C(C)(C)C1`, the IC50 stood at 8.9 nM. Turning to `CC(C)[C@@H](NC(=O)C1CCCC1(O)CCN1CCOCC1)C(=O)N1CC[C@](O)(c2ccc(Cl)cc2)C(C)(C)C1` (stereo partly drawn), the half-inhibitory concentration (IC50) worked out at 8.3 nM. On to `CC(C)[C@@H](NC(=O)c1cccnc1)C(=O)N1CC[C@](O)(c2ccc(Cl)cc2)C(C)(C)C1`, for which the 50% inhibitory concentration (IC50) turned out to be 6.1 nM. The same measure, in the same setting: as for `CC(C)[C@@H](NC(=O)c1ccc(Cl)cc1)C(=O)N1CC[C@](O)(c2ccc(Cl)cc2)C(C)(C)C1`, the figure is 5.5 nM; as for `CC(C)[C@@H](NC(=O)c1ccccc1Cl)C(=O)N1CC[C@](O)(c2ccc(Cl)cc2)C(C)(C)C1`, 4.7 nM; as for `CCC(=O)N[C@@H](C(=O)N1CC[C@](O)(c2ccc(Cl)cc2)C(C)(C)C1)C(C)C`, 3.6 nM. On the same count and under the same terms, with `CC(C)[C@@H](NC(=O)Cc1ccncc1)C(=O)N1CC[C@](O)(c2ccc(Cl)cc2)C(C)(C)C1` the figure was 3.5 nM. With `CC(C)[C@@H](NC(=O)[C@@H]1CC[C@H](O)C1)C(=O)N1CC[C@](O)(c2ccc(Cl)cc2)C(C)(C)C1`, the IC50 came out at 2.9 nM.

As for `CC(C)[C@@H](NC(=O)C1CCCC1)C(=O)N1CC[C@](O)(c2ccc(Cl)cc2)C(C)(C)C1`, the half-maximal inhibitory concentration (IC50) turned out to be 2.5 nM. On the same count and under the same terms, as for `CC(C)CC(=O)N[C@@H](C(=O)N1CC[C@](O)(c2ccc(Cl)cc2)C(C)(C)C1)C(C)C`, the figure is 1.9 nM; as for `CC(C)[C@@H](NC(=O)Cc1ccccc1)C(=O)N1CC[C@](O)(c2ccc(Cl)cc2)C(C)(C)C1`, 1.8 nM; as for `CC(C)CCC(=O)N[C@@H](C(=O)N1CC[C@](O)(c2ccc(Cl)cc2)C(C)(C)C1)C(C)C`, 1.2 nM. Turning to `CC(C)[C@@H](NC(=O)[C@H]1CC[C@@H](O)C1)C(=O)N1CC[C@](O)(c2ccc(Cl)cc2)C(C)(C)C1`, the IC50 was found to be 1.1 nM.

A short description of another experiment: Antagonist activity at human CCR1 assessed as inhibition of RANTES-induced chemotaxis.
Consider `CC(C)[C@@H](NC(=O)[C@@H]1CC[C@@H](O)C1)C(=O)N1CC[C@](O)(c2ccc(Cl)cc2)C(C)(C)C1`, for which the IC50 is 1 nM.

The next experiment in a line: Antagonist activity at human CCR1 assessed as inhibition of MPIF-1-induced chemotaxis.
Consider `CC(C)[C@@H](NC(=O)[C@@H]1CC[C@@H](O)C1)C(=O)N1CC[C@](O)(c2ccc(Cl)cc2)C(C)(C)C1`, for which the IC50 came out at 2.7 nM.

Another experiment is described as follows: Antagonist activity at human CCR1 assessed as inhibition of HCC-1-induced chemotaxis.
Consider `CC(C)[C@@H](NC(=O)[C@@H]1CC[C@@H](O)C1)C(=O)N1CC[C@](O)(c2ccc(Cl)cc2)C(C)(C)C1`, for which the IC50 worked out at 4 nM.
